In patent publication US8962576B2, “Compositions and method for improving endothelial function and cardiovascular health” (Natreon, Inc., priority 2012, dated 2015):

Columns and labels:
Assay type in all cases: in vivo, human
platelet aggregation = assay: Inhibition of platelet aggregation using ADP as aggregant, study (c) subset (i); conditions: Clopidogrel 75 mg single dose Day 1, CAPROS 500 mg BD multiple dose Day 10, combination Day 11, n = 10
Description: The platelet aggregation was determined by the following procedure using Wheecon chronologue dual channel platelet aggregometer (Wheecon Instruments Pvt. Ltd., Chemai, Tamilnadu, India). The percentage decrease in platelet aggregation was recorded at baseline and 3 hours post treatment. Approximately 9 ml of blood sample was collected in a 10 ml plastic test tube containing 1 ml of 3.8% Sodium Citrate from the cubital vein of the subject at baseline and after 3 hours post treatment in all the groups. The test was performed immediately within a time period of one and half hours from collection. The samples were centrifuged at 800 rpm for 15 minutes to obtain a platelet-rich plasma. […] The readings were recorded at baseline and after treatment with ADP. The percentage aggregation at baseline and the percentage inhibition of platelet aggregation on post treatment with all the four treatments was calculated. […]
The effect of CAPROS® 500 mg BD (multiple dose study), Clopidogrel 75 mg (single dose study) and Capros 500 mg+Clopidogrel 75 mg on platelet function was determined by the following procedure using the dual channel platelet aggregometer instrument, as described above. The percentage aggregation at baseline and the percentage inhibition of platelet aggregation on post treatment with all the three treatments was calculated.

Type 2 Diabetic Subjects [1] = assay: Bleeding time, Duke's Method, study (c) subset (i); conditions: Table XIV-A, n = 10
Description: Bleeding Time: Bleeding time in seconds was recorded at baseline and at day 10, after 4 hrs post treatment in all the treatment groups by Duke's Method. Normal Range: 60-180 Sec.

Type 2 Diabetic Subjects [2] = assay: Clotting time, Capillary Tube Method, study (c) subset (i); conditions: Table XIV-B, n = 10
Description: Clotting Time: Clotting time in seconds was recorded at baseline and at day 10, after 4 hrs post treatment in all the treatment groups by Capillary Tube Method. Normal Range-300-480 Sec.

[3] = 4th Hr Post treatment, Clopidogrel 75 mg Day 1, CAPROS 500 mg BD Day 10, combination Day 11
[4] = Baseline, Clopidogrel 75 mg single dose, CAPROS 500 mg BD multiple dose, combination

COC(=O)[C@H](c1ccccc1Cl)N1CCc2sccc2C1 [CLOPIDOGREL, Clopidogrel]
inhibition of platelet aggregation, Mean (platelet aggregation): 47.40%
Bleeding Time, Mean (Type 2 Diabetic Subjects [1]; [3]): 97.30 s
Bleeding Time, Mean (Type 2 Diabetic Subjects [1]; [4]): 84.40 s
Bleeding Time, Mean (Type 2 Diabetic Subjects [2]; [3]): 249.5 s
Bleeding Time, Mean (Type 2 Diabetic Subjects [2]; [4]): 207.5 s
